17 compounds from patent publication US5760036A, “Aminediol protease inhibitors” (E. R. Squibb & Sons, Inc., priority 1995, dated 1998) can be followed below.

Structures can show the parent of a compound that is named as a salt. Where two headings read alike, the source gives them in different places.

Assay [1] deals with RF strain of HIV (CEM-SS cells). Briefly: Cell Culture Anti-HIV Activity (cell viability, formazan). It is filed as cell-based. The settings on record: Human immunodeficiency virus 1, CEM-SS, 144 h, CEM-SS cells, RF strain of HIV, multiplicity of infection 0.04, 6 days at 37° C., 450 nm; read-out: HIV (CEM Cells) IC50. As to the method:
The antiviral activity of aminediol inhibitors of the present invention was evaluated by a microculture method which determines the increase in cell viability of an infected culture when a drug is added. The assay depends on the metabolic reduction of tetrazolium reagent by viable cells to yield a soluble colored formazan product.
The assay was performed as follows: suspensions of CEM-SS cells (5000/well) were infected with the RF strain of HIV at a multiplicity of infection at 0.04 in a 96-well plate. The compounds of the present invention listed in the following Table 1, serially diluted in half-log fashion, were added to the infected and uninfected control cells. Untreated (infected and uninfected) cells were included as controls. Following incubation for 6 days at 37° C., viable cells in each well were quantitated by the visible light absorbance at 450 nm.
The IC50 was calculated as the concentration of drug that increased the formazan production in virally infected cells to 50% of that produced by uninfected cells in the absence of drug.

In the next assay the target is T1, HIV protease (Human immunodeficiency virus type 1 group M subtype B, UniProt P04585).
T1 construct: and purified protease
Nature of the assay: HIV Protease Assay. It is filed as biochemical. A digest of the protocol: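 At a single final concentration of 10 μM (4% DMSO), inhibitors were added to a 30-minute, 37° C reaction of purified enzyme with 450 μM H2N-Val-Ser-Gln-Asn-(β-naphthyl-alanine)-Pro-Val-Ile-OH at pH 5.5 (sodium acetate, BSA). Hydrolysis was quantified by reverse-phase HPLC with 220 nm detection after acid quench.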

[2] abbreviates: pH 5.5, 10 μM inhibitor, 4% DMSO, 450 μM substrate, pH 5.5, 30 minutes at 37° C., RP-HPLC, read-out: HIV Protease % Inhibition at 10 μM.

In the case of `CC(C)(C)OC(=O)N[C@@H](Cc1ccccc1)[C@H](O)CNC[C@@H](O)[C@H](Cc1ccccc1)NC(=O)[C@H](Cc1ccccc1)NC(=O)OCc1ccccc1` (relative stereo) [Compound 55, [1R*,2S*(2S*,3R*)]-N-[[3-[[(1,1-Dimethylethoxy)carbonyl]amino]-2-hydroxy-4-phenylbutyl]amino]-2-hydroxy-1-(phenylmethyl)propyl]-N^2-[(phenylmethoxy)carbonyl]-L-phenylalaninamide], the IC50 in assay [1] worked out at 700 nM. The inhibition at 10 µM at HIV protease (setting [2]) turned out to be 91%.

Turning to `CC(C)(C)OC(=O)N[C@@H](Cc1ccccc1)[C@H](O)CNC[C@@H](O)[C@H](Cc1ccccc1)NC(=O)COc1ccccc1` (relative stereo) [Compound 72, 1S-[1R*,2S*(2S*,3R*)]]-[2-Hydroxy-3-[[2-hydroxy-3-[(phenoxyacetyl)amino]-4-phenylbutyl]amino]-1-(phenylmethyl)propyl]carbamic acid, 1,1-dimethylethylester], in assay [1], the IC50 was over 3200 nM. Moreover, the inhibition at 10 µM at HIV protease (setting [2]) stood at 51%. The corresponding values for `CC(C)[C@H](NC(=O)OCc1cc2ccccc2[nH]1)C(=O)N[C@@H](Cc1ccccc1)[C@H](O)CNC[C@@H](O)[C@H](Cc1ccccc1)NC(=O)OC(C)(C)C` (relative stereo) [Compound 104, [1R*,2S*(2S*,3R*)]-N-[3-[[3-[[(1,1-dimethylethoxy)carbonyl]amino]-2-hydroxy-4-phenylbutyl]amino]-2-hydroxyl-1-(phenylmethyl)propyl]-N^2-[(1H-indol-2-ylmethoxy)carbonyl]-L-valinamide] are 30 nM and 99%. `CC(C)[C@H](NC(=O)Cc1nc2ccccc2[nH]1)C(=O)N[C@@H](Cc1ccccc1)[C@H](O)CNC[C@@H](O)[C@H](Cc1ccccc1)NC(=O)OC(C)(C)C` (relative stereo) [Compound 105, S-[1R*,2S*(2S*,3R*)]-N-[3-[[3-[[(1,1-Dimethylethoxy)carbonyl]amino]-2-hydroxy-4-phenylbutyl]amino]-2-hydroxy-1-(phenylmethyl)-propyl]-N^2-(1H-benzimidazol-2-ylacetyl)-L-valinamide]: the IC50 in assay [1] worked out at 1600 nM. Also, the inhibition at 10 µM on HIV protease (setting [2]) came to 99%. With `CC(C)[C@H](NC(=O)OCc1nc2ccccc2o1)C(=O)N[C@@H](Cc1ccccc1)[C@H](O)CNC[C@@H](O)[C@H](Cc1ccccc1)NC(=O)OC(C)(C)C` (relative stereo) [Compound 171, S-[1R*,2S*(2S*,3R*)]-N^2-[[(2-Benzo-xazolyl)methoxy]carbonyl]-N-[3-[[3-[[(1,1-dimethylethoxy)carbonyl]amino]-2-hydroxy-4-phenylbutyl]amino]-2-hydroxy-1-(phenylmethyl)-propyl]-L-valinamide], the IC50 in assay [1] worked out at 50 nM. In addition, the inhibition at 10 µM at HIV protease (setting [2]) is 99%. Turning to `CC(C)[C@H](NC(=O)OC[C@@H](O)CO)C(=O)N[C@@H](Cc1ccccc1)[C@H](O)CNC[C@@H](O)[C@H](Cc1ccccc1)NC(=O)OC(C)(C)C` (relative stereo) [Compound 202, [[1R*,2S*(2S*,3R*)],N^2-(R*)]-N^2-[(2,3-Dihydroxypropoxy)carbonyl]-N-[3-[[3-[[(1,1-dimethylethoxy)carbonyl]amino]-2-hydroxy-4-phenylbutyl]amino]-2-hydroxy-1-(phenylmethyl)propyl]-L-valinamide], the IC50 in assay [1] was found to be 16000 nM. In addition, the inhibition at 10 µM at HIV protease (setting [2]) came to 95%. For `CC(C)[C@H](NC(=O)OCCNc1ccccc1)C(=O)N[C@@H](Cc1ccccc1)[C@H](O)CNC[C@@H](O)[C@H](Cc1ccccc1)NC(=O)OC(C)(C)C` (relative stereo) [Compound 203, [1R*,2S*(2S*,3R*)]-N-[3-[[3-[[(1,1-Dimethylethoxy)carbonyl]amino]-2-hydroxy-4-phenylbutyl]amino]-2-hydroxy-1-(phenylmethyl)propyl]-N^2-[[2-(phenylamino)ethoxy]carbonyl]-L-valinamide], the 50% inhibitory concentration (IC50) in assay [1] stood at 200 nM. In addition, on HIV protease (setting [2]), the inhibition at 10 µM stood at 98%. On to `CC(C)[C@H](NC(=O)CCC(=O)Nc1ccccc1)C(=O)N[C@@H](Cc1ccccc1)[C@H](O)CNC[C@@H](O)[C@H](Cc1ccccc1)NC(=O)OC(C)(C)C` (relative stereo) [Compound 204, [1R*,2S*(2S*,3R*)]-N-[3-[[3-[[(1,1-Dimethylethoxy)carbonyl]amino]-2-hydroxy-4-phenylbutyl]amino]-2-hydroxy-1-(phenylmethyl)propyl]-N^2-[[1,4-dioxo-4-(phenylamino)butyl]-L-valinamide], for which the IC50 in assay [1] came to 170 nM. Also, on HIV protease (setting [2]), the inhibition at 10 µM was determined as 99%. `C[C@H](O)[C@H](NC(=O)OCc1ccccc1)C(=O)N[C@@H](Cc1ccccc1)[C@H](O)CNC[C@@H](O)[C@H](Cc1ccccc1)NC(=O)OC(C)(C)C` (relative stereo) [Compound 205, [1R*,2S*(2S*,3R*)]-N-[3-[[3-[[(1,1-Dimethylethoxy)carbonyl]amino]-2-hydroxy-4-phenylbutyl]amino]-2-hydroxy-1-(phenylmethyl)propyl]-N^2-[(phenylmethoxy)carbonyl]-L-allothreoninamide]: in assay [1], the IC50 came to 70 nM. Also, the inhibition at 10 µM at HIV protease (setting [2]) came to 98%. In the case of `CC(C)[C@H](NC(=O)C(N)Cc1ccccc1O)C(=O)N[C@@H](Cc1ccccc1)[C@H](O)CNC[C@@H](O)[C@H](Cc1ccccc1)NC(=O)OC(C)(C)C` (relative stereo) [Compound 211, [1R*,2S*(2S*,3R*)]-N-[3-[[3-[[(1,1-Dimethylethoxy)carbonyl]amino]-2-hydroxy-4-phenylbutyl]amino]-2-hydroxy-1-(phenylmethyl)propyl]-N^2-(2-hydroxyoxyphenylalanyl)-L-valinamide, fumarate (2:3) salt], the IC50 in assay [1] stood at 900 nM. In addition, the inhibition at 10 µM on HIV protease (setting [2]) was found to be 99%. Turning to `C=Cc1ccccc1C[C@H](NC(=O)OC(C)(C)C)[C@H](O)CNC[C@@H](O)[C@H](Cc1ccccc1)NC(=O)OC(C)(C)C` [Compound 370, [1S-[1R*,2S*(2S*, 3R*)]]-[3-[[3-[[(1,1-Dimethylethoxy)carbonyl]amino]-2-hydroxy-4-(2-ethenylphenyl)butyl]amino]-2-hydroxy-1-(phenylmethyl)propxyl]carbamic acid, 1.1-dimethylethyl ester], the inhibition at 10 µM at HIV protease (setting [2]) was 96%. Still for that read-out and setting: under `CCc1ccccc1CC(NC(=O)OC(C)(C)C)C(O)CNCC(O)C(Cc1ccccc1)NC(=O)OC(C)(C)C` (stereo not drawn) [Compound 371] stands 98%. Turning to `CN(C)C(=O)OCCOc1ccc(C[C@H](NC(=O)OC(C)(C)C)[C@H](O)CNC[C@@H](O)[C@H](Cc2ccccc2)NC(=O)OC(C)(C)C)cc1` [Compound 372, [1S-[1R*,2S*(2S*, 3R*)[[-]3-]]4-]4-[2-[[(Dimethylamino)carbonyl]oxy]ethoxyl]phenyl]-3-[[(1,1-dimethylethoxy)carbonyl]amino]-2-hydroxybutyl]amino]-2-hydroxy-1-(phenylmethyl) propyl]carbamic acid], the inhibition at 10 µM at HIV protease (pH 5.5, read-out: HIV Protease % Inhibition at 10 μM) was found to be 98%. On to `CC(C)(C)OC(=O)N[C@@H](Cc1ccccc1)[C@H](O)CNC[C@@H](O)[C@H](Cc1ccccc1)NC(=O)[C@H](O)c1ccccc1` [Compound 377, [1S-[1R*,2S*[2S*, 3R*(S*)]]]-[3-[[3-[2-Hydroxy-1-oxo-2-phenylethyl)amino]-2-hydroxy-4-phenylbutyl]amino]-2-hydroxy-1-(phenylmethyl)propyl]carbamic acid, 1-dimethylethyl ester], for which, at HIV protease (setting [2]), the inhibition at 10 µM came to 95%. For the compound `CC(C)(C)OC(=O)N[C@@H](Cc1ccccc1)[C@H](O)CNC[C@@H](O)[C@H](Cc1ccccc1)NC(=O)[C@@H](O)c1ccccc1` [Compound 378, [1S-[1R*,2S*[2S*, 3R*(R*)]]]-[3-[[3-[2-Hydroxy-1-oxo-2-phenylethyl)amino]-2-hydroxy-4-phenylbutyl]amino]-2-hydroxy-1-(phenylmethyl)propyl]carbamic acid, 1-dimethylethyl ester], the inhibition at 10 µM at HIV protease (setting [2]) worked out at 27%. The same measure, in the same setting: with `CC(C)(C)OC(=O)N[C@@H](Cc1ccccc1)[C@H](O)CNC[C@@H](O)[C@H](Cc1ccccc1)NC(=O)OC1(C)CCCC1O` (stereo partly drawn) [Compound 379, [1S-(1R*,2S*) (trans)]-[Iminobis[2-hydroxy-1-(phenylmethyl)-3,1-propanediyl]]bis[carbamic acid], 1,1-dimethylethyl 2-hydroxy-1-methylcyclopentyl ester] the figure was 98%; with `CC(C)(C)OC(=O)N[C@@H](Cc1ccccc1)[C@H](O)CNC[C@@H](O)[C@H](Cc1ccc(OCCN2CCOCC2=O)cc1)NC(=O)OC(C)(C)C` [Compound 380, [1S-[1R*, 2S*(2S*, 3R*)]]-[3-[[3-[[(1,1-Dimethylethoxy)carbonyl]amino]-2-hydroxy-4-[4-[2-(3-oxo-4-morpholinyl)ethoxy]phenyl]-butyl]amino]-2-hydroxy-1-(phenylmethyl)propyl]-carbamic acid, 1,1-dimethylethyl ester], 97%.

Broadly, the IC50 is the concentration needed to halve the response being measured. As a reminder, the inhibition is the relative decrease from the control value, in per cent.
